# Measured values reported in patent EP0585371B1, “AROMATIC OLIGOMERIC COMPOUNDS USEFUL AS MIMICS OF BIOACTIVE MACROMOLECULES” (RHONE-POULENC RORER INTERNATIONAL (HOLDINGS) INC., priority 1991, dated 1992).
# Experiments:
# normal pooled plasma = test: Anticoagulation activity, Activated Partial Thromboplastin Time (APTT) test; conditions: concentration required to double clotting time
# Outline: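 Normal pooled plasma was mixed with compound in 50 mM Tris-HCl, pH 7.5, and held at 37 °C for 2.5 min. Actin-activated cephaloplastin was added for 5 min, then 35 mM CaCl, and clotting time was read photometrically. Over about .025–1 mg/ml, the concentration doubling clotting time was found by linear interpolation.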
# vWF Binding to Gp1b = biological target: T1, vWF Binding to Gp1b (Homo sapiens, UniProt P04275+P07359); test: Inhibition of ristocetin-induced binding of 125I-vWF to formalin-fixed platelets; conditions: at 100 µg/ml; ristocetin 1.0 mg/ml
# T1 construct: multimeric vWF (isolated from human plasma cryoprecipitate); Formalin-fixed platelets, prepared according to the method of MacFarlane; from tissue; host or cells: vWF from human plasma cryoprecipitate; GPIb on formalin-fixed platelets
# Method: The binding of vWf (vonWillebrand Factor) to glycoprotein Ib is measured in one of two experimental systems, in the presence of either ristocetin or botrocetin as modulators of binding. The ristocetin modulated binding is described herein.
# Formalin-fixed platelets, prepared according to the method of MacFarlane, D. et al., Thromb. Diath. Haemorrh. 34, 306-308 (1975), were preincubated at room temperature for 15 minutes with specified dilutions of oligomers according to the present invention. Ristocetin, (Sigma, St. Louis, MO) diluted to a final concentration of 1.0 mg/ml, and ^125I-labelled multimeric vWF (isolated from human plasma cryoprecipitate according to the method of Fulcher, C.A. et al. Proc. Natl. Acad. Sci. USA, 79, 1648-1652 (1982), and labelled according to the method of Fraker, P.J. et al. Biochem. Biophys. Res. Commun., 80, 849-857 (1978)) were then added to the incubation mixture, and the amount of ^125I- vWF bound to the platelets was determined. ^125I-vWF binding to the platelets was referenced against 100% binding which was defined as the amount of ^125I- vWF bound in the absence of added oligomer compound. The method for measuring vWF binding is reported in detail in Ruggeri et al., J. Clin. Invest., 72, 1-12, (1983), herein incorporated by reference.
# T1 sequence (P04275 764-2813 limits assumed): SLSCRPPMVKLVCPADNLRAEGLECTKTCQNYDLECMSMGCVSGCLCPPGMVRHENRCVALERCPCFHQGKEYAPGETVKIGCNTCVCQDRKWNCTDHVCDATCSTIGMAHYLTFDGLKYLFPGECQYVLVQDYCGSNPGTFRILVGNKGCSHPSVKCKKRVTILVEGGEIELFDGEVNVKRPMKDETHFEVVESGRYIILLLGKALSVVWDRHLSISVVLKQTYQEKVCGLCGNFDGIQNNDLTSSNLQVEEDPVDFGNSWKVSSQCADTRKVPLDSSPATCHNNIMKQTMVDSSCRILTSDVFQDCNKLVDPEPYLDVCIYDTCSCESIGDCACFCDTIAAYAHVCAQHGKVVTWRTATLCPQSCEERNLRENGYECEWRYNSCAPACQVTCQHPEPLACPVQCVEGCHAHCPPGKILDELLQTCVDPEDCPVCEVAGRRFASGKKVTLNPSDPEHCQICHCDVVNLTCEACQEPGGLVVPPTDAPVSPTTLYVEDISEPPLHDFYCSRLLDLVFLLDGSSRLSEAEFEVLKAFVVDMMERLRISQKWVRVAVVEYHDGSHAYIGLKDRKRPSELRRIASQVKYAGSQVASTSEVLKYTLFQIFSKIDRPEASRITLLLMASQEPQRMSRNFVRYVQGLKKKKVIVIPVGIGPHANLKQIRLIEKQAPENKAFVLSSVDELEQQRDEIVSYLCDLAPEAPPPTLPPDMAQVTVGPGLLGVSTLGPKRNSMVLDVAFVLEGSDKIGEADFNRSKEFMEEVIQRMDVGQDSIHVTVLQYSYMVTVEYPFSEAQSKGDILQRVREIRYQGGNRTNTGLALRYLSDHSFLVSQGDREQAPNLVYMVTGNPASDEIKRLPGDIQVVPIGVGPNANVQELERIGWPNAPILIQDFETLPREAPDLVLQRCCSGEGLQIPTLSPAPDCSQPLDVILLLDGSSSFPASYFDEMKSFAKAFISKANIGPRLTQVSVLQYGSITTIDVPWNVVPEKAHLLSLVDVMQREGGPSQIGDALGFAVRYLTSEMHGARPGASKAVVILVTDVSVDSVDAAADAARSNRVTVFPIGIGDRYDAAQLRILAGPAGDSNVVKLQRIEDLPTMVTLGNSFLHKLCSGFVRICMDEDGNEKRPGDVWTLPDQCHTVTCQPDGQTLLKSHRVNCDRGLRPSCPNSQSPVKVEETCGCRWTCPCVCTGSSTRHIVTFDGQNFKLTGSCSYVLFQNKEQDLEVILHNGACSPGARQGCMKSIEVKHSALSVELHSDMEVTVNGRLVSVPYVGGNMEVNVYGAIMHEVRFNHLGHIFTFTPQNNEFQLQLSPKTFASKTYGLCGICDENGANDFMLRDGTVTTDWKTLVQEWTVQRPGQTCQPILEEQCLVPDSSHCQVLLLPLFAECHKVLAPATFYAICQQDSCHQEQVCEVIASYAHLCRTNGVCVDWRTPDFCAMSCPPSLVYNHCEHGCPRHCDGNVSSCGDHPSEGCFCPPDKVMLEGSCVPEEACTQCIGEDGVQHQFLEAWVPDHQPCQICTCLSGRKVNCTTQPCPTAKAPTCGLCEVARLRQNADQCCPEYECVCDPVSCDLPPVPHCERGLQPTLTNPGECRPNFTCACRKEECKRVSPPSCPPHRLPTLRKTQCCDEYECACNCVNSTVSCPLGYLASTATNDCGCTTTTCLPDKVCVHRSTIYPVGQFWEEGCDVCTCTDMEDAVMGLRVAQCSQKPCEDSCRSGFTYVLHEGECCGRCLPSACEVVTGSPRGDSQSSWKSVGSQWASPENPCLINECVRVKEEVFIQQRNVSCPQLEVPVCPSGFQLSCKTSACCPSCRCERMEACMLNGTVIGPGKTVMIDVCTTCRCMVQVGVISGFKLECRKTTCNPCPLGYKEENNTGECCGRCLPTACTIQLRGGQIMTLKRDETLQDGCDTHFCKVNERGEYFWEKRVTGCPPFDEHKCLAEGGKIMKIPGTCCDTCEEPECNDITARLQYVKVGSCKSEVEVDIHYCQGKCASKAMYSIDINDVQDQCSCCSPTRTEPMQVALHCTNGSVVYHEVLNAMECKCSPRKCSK
# T1 sequence (P07359 17-652): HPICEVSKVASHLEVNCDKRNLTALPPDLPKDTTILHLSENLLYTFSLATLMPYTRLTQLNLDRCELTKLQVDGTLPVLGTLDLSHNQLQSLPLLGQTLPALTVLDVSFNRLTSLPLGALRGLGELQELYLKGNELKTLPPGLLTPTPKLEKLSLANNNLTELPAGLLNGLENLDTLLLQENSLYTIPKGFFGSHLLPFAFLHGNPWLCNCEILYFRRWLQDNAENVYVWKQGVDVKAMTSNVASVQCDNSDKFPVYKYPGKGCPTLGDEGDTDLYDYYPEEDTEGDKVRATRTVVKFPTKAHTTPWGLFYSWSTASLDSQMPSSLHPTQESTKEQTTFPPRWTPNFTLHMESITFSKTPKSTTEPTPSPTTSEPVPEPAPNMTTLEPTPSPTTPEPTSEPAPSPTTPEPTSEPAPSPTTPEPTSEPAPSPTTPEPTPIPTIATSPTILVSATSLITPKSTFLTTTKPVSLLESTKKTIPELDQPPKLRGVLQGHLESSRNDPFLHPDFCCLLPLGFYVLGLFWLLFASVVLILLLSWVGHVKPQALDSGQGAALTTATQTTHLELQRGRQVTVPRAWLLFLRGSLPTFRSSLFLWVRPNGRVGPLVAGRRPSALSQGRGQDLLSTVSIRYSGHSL
structure (smiles),measurement,setting,value
"Cc1cc(O)c(Cc2cc(O)c(Cc3cc(O)c(Cc4cc(O)c(Cc5cc(O)c(Cc6cc(O)c(Cc7cc(O)c(Cc8cc(O)ccc8CCC(=O)O)cc7CCC(=O)O)cc6CCC(=O)O)cc5CCC(=O)O)cc4CCC(=O)O)cc3CCC(=O)O)cc2CCC(=O)O)cc1CCC(=O)O [Ex 4, 5-[4-[4-[4-[4-[4-[4-[[2-(2-carboxyethyl)-5-hydroxy]benzyl]-[2-(2-carboxyethyl)-5-hydroxy]benzyl]-[2-(2-carboxyethyl)-5-hydroxy]benzyl]-[2-(2-carboxyethyl)-5-hydroxy]benzyl]-[2-(2-carboxyethyl)-5-hydroxy]benzyl]-[2-(2-carboxyethyl)-5-hydroxy]benzyl]-[2-(2-carboxyethyl)-5-hydroxy]benzyl]-4-hydroxy-2-methylhydrocinnamic acid]",APTT ICDCT,normal pooled plasma,430 µg/mL
same,Ristocetin-Induced Inhibition of vWF Binding to Gp1b,vWF Binding to Gp1b,50% at 100 µg/ml
